Laboratory results: US20230242538A1, “PanK Modulators and Methods Using Same” (YALE UNIVERSITY, priority 2020, published 2023)
Converted amounts (≈) assume the structure as drawn. Read-outs that look alike come from different tables or passages of the source.

Key:
[1] = molecular target: A. fumigatus enzyme (AfPanK) (Aspergillus fumigatus, UniProt Q4WWV3); test: Inhibition of A. fumigatus pantothenate kinase (AfPanK); format: biochemical; details: Table 2; read-out: A. fum. IC50
hPanK3 = hPanK3 (Homo sapiens, UniProt Q9H999); test: Modulation of human PanK (hPanK3); format: biochemical; details: Table 2; activation
Description: (§1) Compounds of interest were assayed for their activity as inhibitors of fungal pantothenate kinase (PanK), modulators of human PanK, and general toxicity against HeLa cells.

HeLa cells = test: General toxicity against HeLa cells, 72 hr; format: cell-based; details: for EC50 HeLa Tox 72 hr μM: Table 2; for EC50: Homo sapiens, HeLa, Table 2, read-out: EC50 HeLa Tox 72 hr
Description: as §1

Cab1 = molecular target: T1, Cab1 (Saccharomyces cerevisiae, UniProt Q04430); test: Inhibition of Cab1 pantothenate kinase; format: biochemical
T1 construct: His6; made in house
Description: The activity of recombinant His6-tagged Cab1p and cab1^G351S was determined in vitro using the Kinase-Glo Plus Luminescent Kinase (Kinase-Glo) assay as described in Chiu, et al., 2017, Scientific Reports 7:14234. The assay measures the amount of ATP remaining in solution following the kinase reaction. Briefly, kinase buffer consisted of 100 mM Tris-HCl pH 7.4, 10 mM MgCl2, 100 μM pantothenate (PA), 100 μM ATP, and 0.5 mg/mL γ-globulin. Kinase reactions were initiated with the addition of 500 ng of purified Cab1p or Cab1^G351S in elution buffer (10 mM Tris pH 7.4, NaCl 10 mM, 500 mM imidazole). Heat-inactivated (80° C. for 20 min) Cab1p or Cab were used as controls. Samples were incubated at room temperature for 1 hour. At the end of the incubation, an equal volume (10 μL) of Kinase-Glo reagent was added to each sample, the plates were further incubated for 5 min and luminescence was recorded using BioTek SynergyMx microplate reader (excitation wavelength 485; emission wavelength 528).
as §1

[2] = tested on: WT cells (Saccharomyces cerevisiae JS91.15-23); test: Spotting assay on YPD agar, WT yeast; format: cell-based; details: 30° C., 48 hours; amorolfine 10 ng/mL, fluconazole 10 μg/mL, terbinafine 10 μg/mL, amphotericin B 1 μg/mL
Source text: (§2) Yeast strains (Saccharomyces cerevisiae) used in this study are JS91.15-23 (MATα his3 leu2 trp1 ura3) and JS91.14-24 (MATa ura3 his3 cab1ts) (Olzhausen, et al., 2009, Curr Genet 55, 163-173). Wild type and mutant strains were propagated either in YPD medium (2% bacto-peptone, 2% D-(+)-glucose and 1% yeast extract) or defined pantothenic acid-free (minimal) medium composed of Yeast Nitrogen Base (MP Biomedicals), supplemented with Complete Supplement Mixture (MP Biomedicals) and all vitamins except pantothenic acid. Where indicated, media were supplemented with appropriate concentrations of pantothenic acid.
(§3) Spotting assay were performed as follows. Pre-cultures of WT and cab1^ts yeast strains were prepared in YPD medium overnight at 30° C. Cells were harvested, washed, and diluted to 10^8 cells in 500 μL sterile water. Subsequent serial dilutions were made and 5 μL of cell suspensions were spotted on YPD agar plates lacking or supplemented with amorolfine 10 ng/mL, amphotericin B 1 μg/mL, fluconazole 10 μg/mL or terbinafine 10 μg/mL to achieve 10^6, 10^5, 10^4, 10^3, 10^2, and 10^1 cells per spot. Plates were incubated at 30° C. or 37° C. and imaged every 24 hours. For liquid assay in 96-well plate format, cells were pre-cultured overnight in liquid YPD medium at 30° C., washed three times in water and diluted to achieve 10^4 cells per well in 150 μL of minimal medium supplemented with 1 μM, 10 μM or 100 μM pantothenic acid and either lacking or supplemented with terbinafine (160 μg/ml). All plates were incubated at 30° C. Optical density measurements were taken with a BioTek SynergyMx microplate reader (OD630) every 8 hours for a total of 96 hours. Relative time to mid-log phase was calculated by first graphing growth curves of the varying concentrations of terbinafine for each concentration of pantothenic acid, and then determining the value at which the untreated curve reached saturation, and dividing it by 2 to represent the mid-log value. Dividing the time to mid-log phase of treated cells by the time to mid-log phase of untreated gave the relative time to mid-log phase.

[3] = tested on: cab1^ts cells (Saccharomyces cerevisiae JS91.14-24); test: Spotting assay on YPD agar, cab1ts yeast; format: cell-based; details: 30° C., 48 hours; amorolfine 10 ng/mL, fluconazole 10 μg/mL, terbinafine 10 μg/mL, amphotericin B 1 μg/mL
Source text: as §2, §3

[4] = tested on: WT cells (Saccharomyces cerevisiae); test: Liquid growth assay in minimal medium, WT yeast; format: cell-based
Source text: as §2, §3

[5] = tested on: cab1^ts cells (Saccharomyces cerevisiae); test: Liquid growth assay in minimal medium, cab1ts yeast; format: cell-based; details: for relative time to mid-log phase in the presence vs. absence of the drug: 160 μg/mL terbinafine
Source text: as §2, §3

[6] = tested on: WT cells (Saccharomyces cerevisiae); test: Drug-drug interaction with α-PanAm, checkerboard / isobologram; format: cell-based; details: n=2
Description: Clin. Microbiol. 43:140-143. The isobologram was produced by solving for the sum 50% fractional inhibitory concentration (ΣFIC50) using the equation: The data from the time-point where the 0 μg/mL terbinafine curve reached saturation was used to generate percent inhibition values, representing growth inhibition based on the concentration of terbinafine. This was done by dividing the value of interest by the untreated (0 μg/mL terbinafine) value, multiplying by 100 to get a percentage, and then subtracting that percentage from 100, representing 100% inhibition. The resulting values were used to create an inhibition curve, using the best fit function to generate an MIC50. […] The resulting MIC50 values were plugged into the ΣFIC50 equation, and the ΣFIC50 values were used to generate the curve.

yeast = details: cited from earlier work
[7] = 1 μg/mL amphotericin B, 1 μM PA
[8] = read-out: A cer. Cab1 IC50 μM, Table 2
[9] = 100 μM PA, single agent: squalene 100 μg/mL or terbinafine 80 μg/mL

Sequence of hPanK3 (Q9H999 whole entry): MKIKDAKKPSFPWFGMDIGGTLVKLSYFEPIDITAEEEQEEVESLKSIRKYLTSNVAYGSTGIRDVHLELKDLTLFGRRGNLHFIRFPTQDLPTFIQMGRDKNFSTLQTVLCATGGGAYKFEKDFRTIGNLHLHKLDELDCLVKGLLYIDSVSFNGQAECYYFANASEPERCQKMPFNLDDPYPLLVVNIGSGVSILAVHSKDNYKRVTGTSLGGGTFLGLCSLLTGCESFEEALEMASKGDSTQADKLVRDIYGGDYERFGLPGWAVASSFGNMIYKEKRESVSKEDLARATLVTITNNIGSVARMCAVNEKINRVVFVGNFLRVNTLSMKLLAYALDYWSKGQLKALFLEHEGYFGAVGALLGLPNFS
T1 sequence (Q04430 whole entry): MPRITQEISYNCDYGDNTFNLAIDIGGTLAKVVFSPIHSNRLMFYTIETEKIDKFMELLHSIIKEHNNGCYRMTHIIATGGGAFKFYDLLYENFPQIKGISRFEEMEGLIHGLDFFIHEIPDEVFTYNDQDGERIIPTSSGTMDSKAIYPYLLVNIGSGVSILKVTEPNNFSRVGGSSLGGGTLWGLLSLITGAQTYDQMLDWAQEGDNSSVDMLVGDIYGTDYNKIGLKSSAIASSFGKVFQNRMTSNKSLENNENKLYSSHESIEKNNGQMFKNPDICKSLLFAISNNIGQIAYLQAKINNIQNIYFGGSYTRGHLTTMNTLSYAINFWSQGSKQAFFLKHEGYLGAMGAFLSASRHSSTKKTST
Sequence of A. fumigatus enzyme (AfPanK) (Q4WWV3 entry or part of it): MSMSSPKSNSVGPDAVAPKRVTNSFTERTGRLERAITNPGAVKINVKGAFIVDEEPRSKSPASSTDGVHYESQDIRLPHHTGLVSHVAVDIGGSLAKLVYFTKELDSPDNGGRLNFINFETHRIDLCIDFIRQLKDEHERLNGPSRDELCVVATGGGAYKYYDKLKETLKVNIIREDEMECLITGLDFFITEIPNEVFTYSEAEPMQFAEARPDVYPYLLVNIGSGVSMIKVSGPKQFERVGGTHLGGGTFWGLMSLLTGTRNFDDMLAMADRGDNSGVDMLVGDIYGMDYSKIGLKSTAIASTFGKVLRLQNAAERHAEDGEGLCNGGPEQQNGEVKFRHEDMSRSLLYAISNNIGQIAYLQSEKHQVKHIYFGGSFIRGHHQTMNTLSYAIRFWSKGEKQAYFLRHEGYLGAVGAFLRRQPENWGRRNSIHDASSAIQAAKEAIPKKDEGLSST

With `CC(C)c1ccc(CNc2nc3[nH]c(CN4CCOCC4)cc(=O)n3n2)cc1` [Compound B1, 2-((4-isopropylbenzyl)amino)-5-(morpholinomethyl)-[1,2,4]triazolo[1,5-a]pyrimidin-7(4H)-one] the IC50 [1] was 250 nM, the AC50 (hPanK3) was 1.7 nM and the “EC50 HeLa Tox 72 hr μM” value (HeLa cells) was “Inactive”. It also gave an IC50 (Cab1) of 0.43 µM.

In the case of `C[C@@H]1[C@H](O)[C@@H](C)/C=C/C=C/C=C/C=C/C=C/C=C/C=C/[C@H](O[C@@H]2O[C@H](C)[C@@H](O)[C@H](N)[C@@H]2O)C[C@@H]2O[C@](O)(C[C@@H](O)C[C@@H](O)[C@H](O)CC[C@@H](O)C[C@@H](O)CC(=O)O[C@H]1C)C[C@H](O)[C@H]2C(=O)O` [amphotericin B], the “growth of WT cells on YPD agar in the presence of the drug” value (from here on “growth of WT cells on YPD agar”) [2] is reported as “only slightly inhibited”, the “growth of cab1^ts cells on YPD agar in the presence of the drug” value (from here on “growth of cab1^ts cells on YPD agar”) [3] is reported as “reduced dramatically” and the “relative time to mid-log phase in the presence vs. absence of the drug” value (shortened to “relative time to mid-log phase”) [4, 7] is reported as 2.1. The “growth of WT cells in liquid medium” value ([4]; 1 μg/mL amphotericin B, 100 μM PA) was “not significantly affected”, the “growth of cab1^ts cells in liquid medium” value [5, 7] was “did not grow whatsoever” and the “drug-drug interaction pattern with α-PanAm (isobologram)” value [6] was “synergism”.

With `CN1CCN(Cc2cc(=O)n3nc(NCc4ccc(C(C)(C)C)cc4)nc3[nH]2)CC1` [Compound B8] the IC50 [1] was 890 nM, the AC50 (hPanK3) was 160 nM and the “EC50 HeLa Tox 72 hr μM” value (HeLa cells) was “Inactive”. The IC50 (Cab1; [8]) was 0.55 µM.

`Cc1cc(=O)n2nc(NCc3ccc(C(C)C)cc3)nc2[nH]1` [Compound B2, 2-((4-isopropylbenzyl)amino)-5-methyl-[1,2,4]triazolo[1,5-a]pyrimidin-7(4H)-one] showed an IC50 [1] of 270 nM, an AC50 (hPanK3) of 5.3 nM and an EC50 (HeLa cells) greater than 100000 nM. For the same compound, the IC50 (Cab1) was greater than 100 µM.

With `CCC(C)(C)c1ccc(CC(C)CN2C[C@@H](C)O[C@@H](C)C2)cc1` (stereo partly drawn) [amorolfine] the “growth of WT cells on YPD agar” value [2] was “completely blocked” and the “growth of cab1^ts cells on YPD agar” value [3] was “not affected”.

In the case of `CC(C)=CCC/C(C)=C/CC/C(C)=C/CC/C=C(\C)CC/C=C(\C)CCC=C(C)C` [squalene], the “mid-log phase reached at (time)” value [4, 9] is reported as 34 hours.

Work on `CN(C)c1cc(CN2CCOCC2)nc2nc(NCc3ccc(C(C)(C)C)cc3)nn12` [Compound B7] yielded an IC50 [1] of 44000 nM, an AC50 (hPanK3) of 76 nM and an EC50 (HeLa cells) greater than 100000 nM. The IC50 (Cab1; [8]) was greater than 100 µM.

For `Cc1ccccc1-c1nc2[nH]c(CNc3ccccc3)cc(=O)n2n1` [Compound B3, 5-((phenylamino)methyl)-2-(o-tolyl)-[1,2,4]triazolo[1,5-a]pyrimidin-7(4H)-one], the IC50 [1] was 10000 nM, the AC50 (hPanK3) was 24 nM and the “EC50 HeLa Tox 72 hr μM” value (HeLa cells) was “Inactive”. It also gave an IC50 (Cab1) greater than 100 µM.

With `OC(Cn1cncn1)(Cn1cncn1)c1ccc(F)cc1F` [fluconazole] the “growth of WT cells on YPD agar” value [2] was “greatly reduced” and the “growth of cab1^ts cells on YPD agar” value [3] was “not affected”.

For `CC(C)c1ccc(CNc2nc3[nH]c(CN4CCCC4)cc(=O)n3n2)cc1` [Compound B4, 2-((4-isopropylbenzyl)amino)-5-(pyrrolidin-1-ylmethyl)-[1,2,4]triazolo[1,5-a]pyrimidin-7(4H)-one], the IC50 [1] was 11000 nM, the AC50 (hPanK3) was 32 nM and the “EC50 HeLa Tox 72 hr μM” value (HeLa cells) was “Inactive”. The IC50 (Cab1) was greater than 100 µM.

For `CC(CNC(=O)[C@H](O)C(C)(C)CO)C(=O)NCCc1ccccc1` (stereo partly drawn) [α-PanAm], the MIC50 (yeast; medium supplemented with 1 μM pantothenic acid) is given as roughly 7.6 µg/mL (≈ 22.6 µM) and the MIC50 (yeast; medium with 100 nM pantothenic acid) is given as roughly 1.9 µg/mL (≈ 5.65 µM).

For `CN(C/C=C/C#CC(C)(C)C)Cc1cccc2ccccc12` [terbinafine], the “growth of WT cells on YPD agar” value [2] was “greatly reduced”, the “growth of cab1^ts cells on YPD agar” value [3] was “not affected” and the “mid-log phase reached at (time)” value [4, 9] was 47 hours. For the same compound, the “mid-log phase reached at (time)” value ([4]; 100 μM PA, terbinafine 80 μg/mL in the presence of 100 μg/mL squalene) was 61 hours, the “relative time to mid-log phase” value ([4]; 160 μg/mL terbinafine, 1 μM PA) was 1.8 and the “relative time to mid-log phase” value ([4]; 160 μg/mL terbinafine, 10 μM PA) was 2.1. For the same compound, the “relative time to mid-log phase” value ([4]; 160 μg/mL terbinafine, 100 μM PA) was 2.3, the “relative time to mid-log phase” value ([5]; 1 μM PA) was 1.1 and the “relative time to mid-log phase” value ([5]; 10 μM PA) was 1.4. For the same compound, the “relative time to mid-log phase” value ([5]; 100 μM PA) was 1.6 and the “drug-drug interaction pattern with α-PanAm (isobologram)” value [6] was “antagonism”.

In the case of `CC(C)(C)c1ccc(CNc2nc3[nH]c(CN4CCOCC4)cc(=O)n3n2)cc1` [Compound B6], the IC50 [1] is reported as 260 nM, the AC50 (hPanK3) is reported as 58 nM and the “EC50 HeLa Tox 72 hr μM” value (HeLa cells) is reported as “Inactive”. The IC50 (Cab1; [8]) was 0.19 µM.

In the case of `CNc1cc(CN2CCOCC2)nc2nc(NCc3ccc(C(C)(C)C)cc3)nn12` [Compound B5], the IC50 [1] is reported as 28000 nM, the AC50 (hPanK3) is reported as 38 nM and the EC50 (HeLa cells) is reported as greater than 100000 nM. It also gave an IC50 (Cab1; [8]) of 9.4 µM.

For `CC(C)(C)c1ccc(CNc2nc3[nH]c(CN4CCCCC4)cc(=O)n3n2)cc1` [Compound B9], the IC50 [1] was 1800 nM, the AC50 (hPanK3) was 270 nM and the EC50 (HeLa cells) was greater than 100000 nM. It also gave an IC50 (Cab1; [8]) of 30 µM.
